Reference: publication PMC11023938 (Nature, 2024)

What was measured:
[1] = system: bone marrow-derived macrophages; assay: Macrophage transwell migration; assay type: cell-based, mouse; settings: TSP-1 1, 10 or 100 nM
Experimental: Assays were conducted using 6.5-mm-diameter culture plate inserts (Corning) with 5-μm and 3-μm pore sizes for macrophages and neutrophils, respectively. Macrophages (1 × 10^5) or neutrophils (3 × 10^5) in migration media (DMEM/F12 with 0.25% BSA) were added to the inserts. The lower chambers contained migration buffer alone or chemoattractant (mouse CCL2 10 ng ml^−1 for macrophages or mouse CXCL1/KC 150 ng ml^−1 for neutrophils, PeproTech) with or without CGRP. Cells were allowed to migrate through the insert membrane for 3-4 h at 37 °C with 5% CO2. For macrophages, the inserts were then fixed with 4% paraformaldehyde, and cells on the upper side were removed. DAPI (1 μg ml^−1) was used to stain cells on the bottom side, and they were counted using a fluorescent microscope. […] The data are presented as the fold change, calculated by dividing the number of cells that migrated in response to treatments by the number of cells that migrated spontaneously (migration media only).
After 24 h, cells were collected for the migration assay.

[2] = system: bone marrow-derived neutrophils; assay: Neutrophil transwell migration; assay type: cell-based, mouse; settings: TSP-1 1, 10 or 100 nM
Experimental: Bone marrow cells were flushed from femora and tibiae of C57BL/6 J mice (8- to 12-week-old) with HBSS without Ca^2+ and Mg^2+ containing 2% FBS and 1 mM EDTA. Cell suspension was passed through a 70-μm strainer. Next, EasySep Mouse Neutrophil Enrichment Kit or EasySep Mouse Monocyte Isolation Kit ([sequence] Technologies) was used to isolate neutrophils or monocytes according to the manufacturer’s instructions. Neutrophils were resuspended in RPMI containing 100 units ml^−1 penicillin/streptomycin and 10% FBS for cell migration assay and cell death assay or 2% FBS for efferocytosis.
Assays were conducted using 6.5-mm-diameter culture plate inserts (Corning) with 5-μm and 3-μm pore sizes for macrophages and neutrophils, respectively. Macrophages (1 × 10^5) or neutrophils (3 × 10^5) in migration media (DMEM/F12 with 0.25% BSA) were added to the inserts. The lower chambers contained migration buffer alone or chemoattractant (mouse CCL2 10 ng ml^−1 for macrophages or mouse CXCL1/KC 150 ng ml^−1 for neutrophils, PeproTech) with or without CGRP. […] For neutrophils, cells that migrated into the lower chamber were collected and counted using a haemocytometer. The data are presented as the fold change, calculated by dividing the number of cells that migrated in response to treatments by the number of cells that migrated spontaneously (migration media only).

[3] = system: bone marrow-derived macrophages; assay: Macrophage cell death; assay type: cell-based, mouse; settings: TSP-1 1, 10 or 100 nM, in the presence of inflammatory cytokines; dose-dependent
Experimental: Bone marrow cells from 8- to 12-week-old C57BL/6 J mice were flushed, filtered and cultured in conditioned medium (DMEM/F12 with 10% heat-inactivated FBS, 100 units ml^−1 penicillin/streptomycin, and 20% L929 fibroblasts-conditioned medium) at 37 °C with 5% CO2. After 7–9 days, differentiated macrophages were collected and seeded in 12-well or 6-well plates. The next day, cells were treated with CGRP (1 or 20 nM, Tocris Bioscience, 83651-90-5) for 20 min before exposure to mouse IL-1 (5 ng ml^−1) and TNF (50 ng ml^−1), IL-4 (2 ng ml^−1) and IL-13 (2 ng ml^−1), or IL-10 (2 ng ml^−1) (PeproTech Inc) for 24 or 72 h. Macrophages were detached with TrypLE (Gibco) containing 3 mM EDTA, stained with LIVE/DEAD Aqua dye for 20 min on ice, and incubated with blocking solution (10 μg ml^−1 TruStain FcX anti-CD16/32 (clone 93, BioLegend)) for 20 min before staining with antibodies for 30 min on ice. Antibodies from BioLegend included PE anti-CD11b (clone M1/70, 1 μg ml^−1), BV711 anti-F4/80 (clone BM8, 2 μg ml^−1), APC anti-CD80 (clone 16-10A1, 0.5 μg ml^−1) and PE-Cyanine7 anti-CD206 (clone C068C2, 1 μg ml^−1). […] After washing with Perm buffer and staining buffer, cells were analysed using BD LSR Fortessa X-20 and FlowJo software (BD Biosciences). […]

[4] = system: bone marrow-isolated neutrophils; assay: Neutrophil cell death; assay type: cell-based, mouse; settings: TSP-1 1, 10 or 100 nM, in the presence of inflammatory cytokines; dose-dependent
[5] = system: bone marrow-derived macrophages; assay: Macrophage efferocytosis of neutrophils; assay type: cell-based, mouse; settings: macrophage treatment with TSP-1 1, 10 or 100 nM
Experimental: An efferocytosis assay kit (Cayman, 601770) was used following the manufacturer’s instructions. Neutrophils were labelled with CFSE and cultured in RPMI with 2% serum for 12 h to induce cell death. Bone marrow-derived macrophages cultured for 7 days were seeded at a density of 4 × 10^5 cells per well in a 6-well plate with DMEM/F12 containing 10% FBS and 100 units ml^−1 penicillin/streptomycin. Prior to the assay, macrophages were pre-treated with CGRP (1 or 20 nM) for 24 h. Macrophages were collected, labelled with CytoTell Blue, and then incubated with CFSE-labelled dead/dying neutrophils at different ratios (1:1, 1:2, and 1:4) at 37 °C for 15 min. The reaction was stopped by washing cells with ice-cold PBS containing 5% FBS and 1 mM EDTA. Cells were analysed with BD LSR Fortessa X-20 and FlowJo software (BD Biosciences). Macrophages were identified by CytoTell Blue-positive staining, and the efferocytosis index was calculated as the percentage of CFSE-positive cells in CytoTell Blue-labelled macrophages.
For the efferocytosis assay, cells were cultured with 1 nM CGRP immediately after transfection. After 24 h, cells were collected and co-cultured with dead or dying neutrophils.

[6] = system: Nav1.8^cre/Rosa26^DTA mice; assay: Flow cytometry of injured skin and muscle, nociceptor-ablated mice; assay type: in vivo, mouse; settings: TSP-1 total 10 μg
Experimental: Skin wounds were collected using an 8-mm biopsy punch, and muscle defects were dissected to isolate the quadriceps. Samples were minced with scissors and subjected to two serial digestions with collagenase XI (1 mg ml^−1) at 37 °C (two times 20 min for skin, two times 15 min for muscle). After the first digestion, the supernatant was collected and mixed with neutralization buffer (DMEM/F12 with 10% FBS and 5 mM EDTA). The first collection was kept on ice and fresh collagenase XI was added to the undigested tissue for the second digestion. Digestion mixtures were passed through a 70-μm cell strainer and stained with LIVE/DEAD Fixable Aqua dye (Thermo Fisher Scientific, 1:400 dilution in PBS) for 20 min on ice. Cells were incubated with TruStain FcX anti-CD16/32 (10 μg ml^−1; clone 93, BioLegend) diluted in staining buffer (5% FBS and 2 mM EDTA in PBS) for 20 min and subsequently incubated with primary antibodies in staining buffer for a further 30 min on ice. The following anti-mouse antibodies from BioLegend were used: FITC anti-CD11b (clone M1/70, 6.6 μg ml^−1) or BV711 anti-CD11b (clone M1/70, 2 μg ml^−1); PE anti-F4/80 (clone BM8, 4 μg ml^−1); BV421 anti-Ly6G (clone 1A8, 2 μg ml^−1); BV711 anti-Ly6C (clone HK1.4, 1 μg ml^−1) or FITC anti-Ly6C (clone HK1.4, 5 μg ml^−1); PE-Cyanine7 anti-CD206 (clone C068C2, 2.6 μg ml^−1); APC anti-CD206 (clone C068C2, 2 μg ml^−^1); PE-Cyanine7 anti-CD3 (clone 17A2, 4 μg ml^−1); BV711 anti-CD3 (clone 17A2, 4 μg ml^−1);APC anti-CD4 (clone GK1.5, 2 μg ml^−1); BV421 anti-CD8 (clone 53-6.7, 2 μg ml^−1); PE anti-TCR β (clone H57-597, 2 μg ml^−1); APC/Fire 750 anti-TCR γ/δ (clone GL3, 2 μg ml^−1); PE-Cyanine anti-CD11c (clone N418, 2 μg ml^−1); APC/Fire 750 anti-MHC Class II (clone M5/114.15.2, 2 μg ml^−1). Cells were washed once with a large volume of staining buffer before analysis with BD LSR Fortessa X-20 and FlowJo software (BD Biosciences).

[7] = skin wound borders D1 and D3 or muscle defect via fibrin hydrogel, day 3 post-injury

Substance: thrombospondin-1 [TSP-1]
- macrophage migration towards CCL2 [1]: inhibition of migration
- neutrophil migration towards CXCL1 [2]: inhibition of migration
- macrophage death [3]: accelerated death
- neutrophil death [4]: accelerated death
- efferocytosis of neutrophils by macrophages [5]: greatly enhanced
- CD206 expression in injured tissue ([6]; skin and muscle injuries, day 14 post-injury): increase
- number of inflammatory monocytes/macrophages (Ly6C^hi) in injured tissue [6, 7]: reduced numbers
- number of monocytes/macrophages in injured tissue [6, 7]: reduced numbers
- number of neutrophils in injured tissue [6, 7]: reduced numbers
